Test results taken from patent US8916711B2, “Imidazothiazole-chalcone derivatives as potential anticancer agents and process for the preparation thereof” (Council of Scientific and Industrial Research, priority 2009, dated 2014).

What was measured:
SW-620 = assay: NCI in vitro cytotoxicity (SRB, 48 h), Colon panel; format: cell-based; details: Homo sapiens; SW-620, Colon; 48 h exposure
RXF 393 = assay: NCI in vitro cytotoxicity (SRB, 48 h), Renal panel; format: cell-based; details: Homo sapiens; RXF 393, Renal; 48 h exposure

Row | Structure (SMILES) | GI50 (SW-620) [µM] | GI50 (RXF 393) [µM]
1 | COc1ccc(C(=O)/C=C/c2c(C(F)(F)F)nc3sccn23)cc1OC [Compound 8f, (E)-1-(3,4-dimethoxyphenyl)-3-(6-(trifluoromethyl)imidazo[2,1-b]thiazol-5-yl) prop-2-en-1-one] | 1.49 | 2.51
2 | COc1cc(C(=O)/C=C/c2c(-c3ccc(F)cc3)nc3sc(C)cn23)cc(OC)c1OC [Compound 19e, (E)-3-(6-(4-fluorophenyl)-2-methylimidazo[2,1-b]thiazol-5-yl)-1-(3,4,5-trimethoxyphenyl)prop-2-en-1-one] | 5.34 | 5.75
3 | COc1cc(C(=O)/C=C/c2c(-c3ccc(F)cc3)nc3sccn23)cc(OC)c1OC [Compound 7e, (E)-3-(6-(4-fluorophenyl)imidazo[2,1-b]thiazol-5-yl)-1-(3,4,5-trimethoxyphenyl)prop-2-en-1-one] | 2.99 | –
4 | COc1cc(C(=O)/C=C/c2c(C(F)(F)F)nc3sccn23)cc(OC)c1OC [Compound 7f, (E)-3-(6-(trifluoromethyl)imidazo[2,1-b]thiazol-5-yl)-1-(3,4,5-trimethoxyphenyl)prop-2-en-1-one] | 1.67 | 2.02
5 | COc1ccc(-c2nc3sccn3c2/C=C/C(=O)c2cc(OC)c(OC)c(OC)c2)cc1 [Compound 7a, (E)-3-(6-(4-methoxyphenyl)imidazo[2,1-b]thiazol-5-yl)-1-(3,4,5-trimethoxyphenyl) prop-2-en-1-one] | 3.16 | –
